{"source": "patent EP4050002A1", "about": "“ANTI-PROLIFERATIVE AGENTS” (First Health Pharmaceuticals B.V., priority 2021, dated 2022)", "key": {"MCF10a": {"test_system": "MCF10a", "assay": "Cytotoxicity in non-tumor cells, cell count method", "assay_type": "cell-based, human", "method": "The non-specific toxicity of the compounds is evaluated in non-tumor immortalized cells with cell count and / or MTS methods, and in primary Peripheral Blood Mononuclear Cells (PBMC) with the ATP-based method.\nCells were seeded at 3 to 5 x 10^4 cells/well density depending on cell lines and maintained at 37°C in 5% CO2. After 24 hours cells were treated with ascending concentrations of the investigational compounds and the reference (5-fluoro-Uracyl) in a range from 0 to 100 µM. Compounds were dissolved in DMSO which final concentration in each well was 0.5% v:v. After 72 h of incubation with compounds, the cells were detached with trypsin and re-suspended in 1 ml of complete medium; the cell number was evaluated using a Z2 Coulter Counter (\"cell count method\") (Attallah and Johnson, A simple highly sensitive methods for the determination of cell viability using an electronic particle analyzer, Coulter counter J. Immunol. Methods. 1981, 41, 155; Leonardi et al., Activated kinase screening identifies the IKBKE oncogene as a positive regulator of autophagy. Autophagy, 2019, 15, 312). Alternatively, after the 72 hours of incubation with compounds, the MTS solution (CellTiter 96® AQueous One Solution Cell Proliferation Assay) is added to each well and absorbance at 490 nm wavelength is read after 2 hours of incubation (\"MTS method\"). […]"}, "[1]": {"assay": "Kinetic solubility (turbidimetry)", "assay_type": "physicochemical", "settings": "for Absorbance at 620nm: PBS pH 7.4, 37°C, 2 h", "method": "Kinetic solubility was assessed in phosphate buffered saline at pH 7.4 according to the turbidimetry method. Turbidity (precipitation) was measured by absorbance at 620 nm following incubation at 37°C for 2 h. Stock solution of compounds in DMSO were prepared to produce the desired final range of concentrations, then these were added to the buffer to obtain the final test compound concentrations (1 µM, 3 µM, 10 µM, 30 µM, 100 µM), with a final DMSO concentration 1%). Solubility was estimated from the concentration of tested compound that produced a significant increase in absorbance (≥ 0.003 OD at 620 nm) above vehicle control (1% DMSO in water). Miconazole, Reserpine and Propranolol were used as controls."}, "[2]": {"assay": "Dose estimation by allometric relationship (PAD, HED)", "settings": "mouse models", "from_the_text": "Based on pharmacokinetic studies and efficacy in vivo, it is possible to estimate a dosage in humans by allometric relationship (USFDA. Guidance for Industry: Estimating the Maximum Safe Starting Dose in Adult Healthy Volunteer. Rockville, MD: US Food and Drug Administration; 2005). […] The human equivalent dose (HED) can be estimated according with the FDA guidelines by means of the following formula: HED = animal dose × (((animal weight)/(human weight)))^((1−0.67)) [formula]\nBased on PAD in mouse models, the HED can be estimated as 1.8 mg/(Kg·day) considering a mouse average weight of 30 g and an adult human body weight of 60 Kg."}, "DDX3X": {"target": "DDX3X (Homo sapiens, UniProt O00571)", "sequence (O00571 132-607)": "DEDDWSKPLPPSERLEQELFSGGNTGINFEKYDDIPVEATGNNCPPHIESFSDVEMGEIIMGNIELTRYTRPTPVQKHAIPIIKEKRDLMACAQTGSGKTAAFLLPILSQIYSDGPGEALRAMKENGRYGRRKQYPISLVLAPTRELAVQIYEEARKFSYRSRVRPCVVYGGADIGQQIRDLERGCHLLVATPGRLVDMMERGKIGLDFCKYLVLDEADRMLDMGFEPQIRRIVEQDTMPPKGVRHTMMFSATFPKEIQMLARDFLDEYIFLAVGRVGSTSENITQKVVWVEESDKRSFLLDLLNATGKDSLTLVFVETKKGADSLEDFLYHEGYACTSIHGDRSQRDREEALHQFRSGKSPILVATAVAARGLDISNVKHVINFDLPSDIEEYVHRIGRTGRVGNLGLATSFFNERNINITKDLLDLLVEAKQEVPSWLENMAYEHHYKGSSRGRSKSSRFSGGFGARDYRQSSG", "assay": "nanoDSF enzymatic binding (melting temperature shift)", "design": "human DDX3X (residues 132-607, UniProtID: 000571, produced by Proteros GmbH); purchased Proteros GmbH", "settings": "Compound 100 µM, DDX3 4 µM", "from_the_text": "The binding of compounds to DDX3X have been assessed by nanoDSF analysis (NanoTemper Technologies GmbH, Flößergasse 4, 81369 München, Germany). NanoDSF technology is a Differential Scanning Fluorimetry method which measures the protein stability with high resolution without the need of a dye. In particular it measures the changes of the intrinsic tryptophan fluorescence at 330 and 350 nm and it is used to determine the melting temperature of a protein. In the folded state the residues of tryptophan are buried in the hydrophobic core. During denaturation the residues are more exposed and the fluorescence changes in both intensity and wavelength. In a typical experiment, the protein is mixed with the ligand in the reaction buffer and transferred into a capillary. The fluorescence is monitored over temperature gradient between 20 and 95°C with an increment of 2.5°C per minute. The interaction of the ligand to the folded state of the protein shifts the protein melting temperature (Tm) at higher or lower temperature.\nExperimental conditions: the experiments were conducted with the device Prometheus NT.48 (NanoTemper Technologies GmbH), the enzyme used was the human DDX3X (residues 132-607, UniProtID: 000571, produced by Proteros GmbH). The assessed compounds were dissolved in pure DMSO adequate to obtain a concentration of compound of 100µM and DMSO 1% (v:v) in final solution. Reaction buffer for DDX3X was 20 mM HEPES, pH 7.5, 0.5 mM TCEP, 500 mM NaCl, 10% (v:v) Glycerin, with a final reaction volume of 10 µL and a final DMSO concentration of 1% (v:v). The reaction was performed in \"High sensitivity capillaries\" in the range of 20-95°C with a heating rate of 2.5°C/min, with an incubation time of 60 minutes.\n• 1) Add appropriate volume of target enzyme in reaction buffer • 2) Add compound(s) in 100% DMSO (1% final DMSO conc.) • 3) Fill the capillary • 4) Measure fluorescence\nThe assay development was performed with DDX3X protein alone showing a Tm at 54.6 °C.\nBinding of compound 5 was assessed with the NanoDSF technique, evaluating the association of the aforementioned compound with APO DDX3X and in presence of a competitor for the ATP binding site, Adenylyl imidodiphosphate (AMPPNP) to assess competition of compound 5 for the DDX3X ATP binding site. Table 6. Final protein and compound concentrations in the various assay setup:\nAll the measures were performed in triplicate and the average (Mean Tm) and standard deviation (SD) were calculated with the following equations: [formula] and SD = sqrt((∑((Tm−Mean Tm))^2)/(n−1)) [formula]\nA change of 5xSD from the 1% DMSO control mean is considered to be a significant Tm change. Test of DDX3X with 1% DMSO was performed to obtain the reference melting temperature of the protein alone. Compounds are considered as binders if the Tm shifts by >= 5 times the standard deviation of the control (protein in the absence of compound). Table 7. DDX3X melting temperatures (Tm) at various experimental conditions"}}, "data": [{"smiles": "CCCCc1cn(-c2ccc(-c3nnc(-c4ccccc4C(F)(F)F)o3)cc2)nn1", "note": "[Compound 5]", "values": [{"measurement": "IC50", "setting": "MCF10a; Homo sapiens, MCF-10A, MCF10a, 72 hours of incubation, cell count method", "result": 440, "unit": "µM"}, {"measurement": "toxicity", "setting": "MCF10a; non tumor cell lines (Table 17)", "result": "above 100 µM"}, {"measurement": "solubility at 2 h", "setting": "[1]; 37 °C, aqueous buffer, kinetic from dmso stock, kinetic solubility, PBS pH 7.4, read-out: solubility", "result": "> 100", "unit": "µM"}, {"measurement": "Absorbance at 620nm", "setting": "[1]; conc. 1 µM", "result": 0.037}, {"measurement": "Absorbance at 620nm", "setting": "[1]; conc. 3 µM", "result": 0.037}, {"measurement": "Absorbance at 620nm", "setting": "[1]; conc. 10 µM", "result": 0.037}, {"measurement": "Absorbance at 620nm", "setting": "[1]; conc. 30 µM", "result": 0.037}, {"measurement": "Absorbance at 620nm", "setting": "[1]; conc. 100 µM", "result": 0.038}, {"measurement": "pharmacologically active dose (PAD)", "setting": "[2]", "result": 22.5, "unit": "mg·kg-1·day-1"}, {"measurement": "Comment (Tm shift)", "setting": "DDX3X; AMPPNP 100 µM", "result": "significant Tm shift to higher Tm, compound interference"}, {"measurement": "Mean Tm", "setting": "DDX3X; AMPPNP 100 µM", "result": 56.8, "unit": "°C"}, {"measurement": "Comment (Tm shift)", "setting": "DDX3X; no AMPPNP", "result": "significant Tm shift to higher Tm, compound interference"}, {"measurement": "Mean Tm", "setting": "DDX3X; no AMPPNP", "result": 56.9, "unit": "°C"}]}]}
